Consider four compounds from US20120184493A1, “DERMAL FORMULATIONS OF DP2 RECEPTOR ANTAGONISTS” (PANMIRA PHARMACEEUTICALS, LLC, priority 2009, published 2012).

A value given as a limit tells only on which side of the number the result lay.

The target of one assay is T1, human DP2 receptor (Homo sapiens, UniProt Q9Y5Y4).
T1 construct: expressed in transfected cells
T1 sequence (Q9Y5Y4 1-395): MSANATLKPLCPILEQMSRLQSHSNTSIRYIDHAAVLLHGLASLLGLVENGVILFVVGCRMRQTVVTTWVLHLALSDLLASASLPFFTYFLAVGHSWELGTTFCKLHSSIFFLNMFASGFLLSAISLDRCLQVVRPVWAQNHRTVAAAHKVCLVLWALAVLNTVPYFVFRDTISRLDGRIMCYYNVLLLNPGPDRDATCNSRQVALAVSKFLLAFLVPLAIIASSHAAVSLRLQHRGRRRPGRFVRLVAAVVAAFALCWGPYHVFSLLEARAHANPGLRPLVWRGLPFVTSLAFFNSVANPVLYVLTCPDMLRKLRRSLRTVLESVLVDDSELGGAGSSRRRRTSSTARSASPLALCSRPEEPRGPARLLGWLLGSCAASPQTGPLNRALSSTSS
Briefly: DP2/CRTH2 radioligand binding assay using [3H]PGD2. As to conditions: membranes of HEK293 cells expressing recombinant human DP2, 1 nM [3H]PGD2; read-out: hDP2. On the procedure: The ability of a compound to bind to the human DP2 receptor is assessed via a radioligand binding assay using [^3H]PGD2. HEK293 cells stably expressing recombinant human DP2 are resuspended in 10 mM Hepes, 7.4 containing 1 mM DTT, lysed and centrifuged at 75,000×g to pellet the membranes. The membranes are resuspended in 10 mM Hepes, 7.4 containing 1 mM DTT and 10% glycerol to approximately 5 mg protein/ml. Membranes (2-10 μg protein/well) are incubated in 96-well plates with 1 nM [^3H]PGD2 and test compound in Assay Buffer (50 mM Hepes, 10 mM MnCl2, 1 mM EDTA, plus or minus 0.2% human serum albumin, pH 7.4) for 60 minutes at room temperature. The reactions are terminated by rapid filtration through Whatman GF/C glass fibre filter plates. The filter plates were pre-soaked in 0.33% polythylenimine for 30 minutes at room temperature then washed in Wash Buffer (50 mM Hepes, 0.5 M NaCl pH 7.4) prior to harvesting. After harvesting, the filter plates are washed 3 times with 1 ml cold Wash Buffer then dried. Scintillant is then added to the plates and the radioactivity retained on the filters is determined on a Packard TopCount (Perkin Elmer). Specific binding is determined as total radioactive binding minus non-specific binding in the presence of 10 μM PGD2. IC50s were determined using GraphPad prism analysis of drug titration curves.

The target in another assay is T2, human DP1 receptor (Homo sapiens, UniProt Q13258).
T2 construct: tissue Biological Specialty Corporation; host or cells: human platelets, membrane preparation
T2 sequence (Q13258 1-359): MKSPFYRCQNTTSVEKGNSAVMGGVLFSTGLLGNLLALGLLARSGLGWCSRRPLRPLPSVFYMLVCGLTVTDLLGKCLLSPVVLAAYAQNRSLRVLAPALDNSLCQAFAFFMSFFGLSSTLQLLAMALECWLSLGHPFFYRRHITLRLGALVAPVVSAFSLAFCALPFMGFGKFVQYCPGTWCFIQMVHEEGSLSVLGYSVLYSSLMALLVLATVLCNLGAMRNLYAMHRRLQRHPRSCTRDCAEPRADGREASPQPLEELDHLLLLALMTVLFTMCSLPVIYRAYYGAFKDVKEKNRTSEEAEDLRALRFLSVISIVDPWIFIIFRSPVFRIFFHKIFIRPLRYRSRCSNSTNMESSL
Briefly: DP1 radioligand membrane binding assay using [3H]BWA868C. As to conditions: human platelet membranes, 2 nM [3H]BWA868C; read-out: hDP1. On the procedure: The ability of a compound to bind to the human DP1 receptor was evaluated via a radioligand membrane binding assay using the DP1 selective synthetic ligand [^3H]BWA868C. Packed human platelets (Biological Specialty Corporation), were resuspended in 6 volumes of Hepes/HBSS buffer (10 mM Hepes, 1 mM DTT in Hanks Balanced Salt Solution (HBSS)), lysed and centrifuged at 75,000×g to pellet the membranes. Membranes were resuspended in Hepes/HBSS buffer to approximately 12 mg protein/ml. Membranes (20 μg protein/well) are incubated in 96-well plates with 2 nM [^3H]BWA868C and test compound in Assay Buffer (50 mM Hepes, 10 mM MnCl2, 1 mM EDTA, plus or minus 0.2% human serum albumin, pH 7.4) for 60 minutes at room temperature. The reactions are terminated by rapid filtration through Whatman GF/C glass fibre filter plates. The filter plates were pre-soaked in 0.33% polethylenimine for 30 minutes at room temperature then washed in Wash Buffer (50 mM Hepes, 0.5 M NaCl pH 7.4) prior to harvesting. After harvesting, the filter plates are washed 3 times with 1 ml cold Wash Buffer then dried. Scintillant is then added to the plates and the radioactivity retained on the filters is determined on a Packard TopCount (Perkin Elmer). Specific binding is determined as total radioactive binding minus non-specific binding in the presence of 10 μM BW A868C. IC50s were determined using GraphPad prism analysis of drug titration curves.

For the compound `CCN(Cc1cc(C(F)(F)F)ccc1-c1cncc(CC(=O)O)c1)C(=O)OCc1ccccc1` [(5-{2-[(N-benzyloxycarbonyl-N-ethyl-amino)-methyl]-4-trifluoromethyl-phenyl}-pyridin-3-yl)-acetic acid], the IC50 was under 0.3 µM at human DP2 receptor and over 1 µM on human DP1 receptor. Regarding `CCOc1ccc(-c2ccc(-c3cc(CC(=O)O)ccc3OC)c(CN(CC)C(=O)C3CC3)c2)cn1` [[2′-[(N-cyclopropanecarbonyl-N-ethyl-amino)-methyl]-4′-(6-ethoxy-pyridin-3-yl)-6-methoxy-biphenyl-3-yl]-acetic acid], the IC50 at human DP1 receptor was over 1 µM.

Consider `COc1ccc(CC(=O)O)cc1Oc1ccc(NC(=O)C(C)(C)C)cc1CSC(C)(C)C` [{3-[2-tert-Butylsulfanylmethyl-4-(2,2-dimethyl-propionylamino)-phenoxy]-4-methoxy-phenyl}-acetic acid], for which the IC50 on human DP2 receptor is under 0.3 µM; at human DP1 receptor, over 1 µM. For `CN(C1CCc2c(c3ncccc3n2CC(=O)O)C1)S(=O)(=O)c1ccc(F)cc1` (stereo not shown) [{8-[(4-fluoro-benzenesulfonyl)-methyl-amino]-6,7,8,9-tetrahydro-pyrido[3,2-b]indol-5-yl}-acetic acid], the IC50 was under 0.3 µM on human DP2 receptor and over 1 µM at human DP1 receptor.
